What was measured:
[1] = test system: PDE4 partially purified from human U-937 promonocytic cells; assay: Inhibition of PDE4 enzyme activity; type: biochemical
TNF-alpha [2] = assay: Inhibition of LPS-induced TNF-alpha release by human monocytes; type: cell-based; settings: Monocyte, read-out: Percent Inhibition of TNF-alpha Release
[3] = test system: mouse mesenteric lymph node cells; assay: Inhibition of anti-CD3/anti-CD28 stimulated lymphocyte proliferation; type: cell-based
p44/42 MAP kinase = assay: Inhibition of phosphorylation of p44/42 MAP kinase in RAW 264.7 gamma NO(-) cells (Western blot); type: cell-based, mouse; settings: for inhibition of LPS-induced phosphorylation of p44/42 MAP kinase: 10 ng/ml LPS
[4] = biological target: T1, PDE3 partially purified from human platelets (Homo sapiens, UniProt Q14432); assay: Inhibition of PDE3 enzyme activity; type: biochemical; settings: read-out: Percent Inhibition of Enzyme Activity
T1 construct: PDE3 partially purified from human platelets were used; from tissue; host or cells: human platelets (partially purified enzyme)
T1 sequence (Q14432 whole entry): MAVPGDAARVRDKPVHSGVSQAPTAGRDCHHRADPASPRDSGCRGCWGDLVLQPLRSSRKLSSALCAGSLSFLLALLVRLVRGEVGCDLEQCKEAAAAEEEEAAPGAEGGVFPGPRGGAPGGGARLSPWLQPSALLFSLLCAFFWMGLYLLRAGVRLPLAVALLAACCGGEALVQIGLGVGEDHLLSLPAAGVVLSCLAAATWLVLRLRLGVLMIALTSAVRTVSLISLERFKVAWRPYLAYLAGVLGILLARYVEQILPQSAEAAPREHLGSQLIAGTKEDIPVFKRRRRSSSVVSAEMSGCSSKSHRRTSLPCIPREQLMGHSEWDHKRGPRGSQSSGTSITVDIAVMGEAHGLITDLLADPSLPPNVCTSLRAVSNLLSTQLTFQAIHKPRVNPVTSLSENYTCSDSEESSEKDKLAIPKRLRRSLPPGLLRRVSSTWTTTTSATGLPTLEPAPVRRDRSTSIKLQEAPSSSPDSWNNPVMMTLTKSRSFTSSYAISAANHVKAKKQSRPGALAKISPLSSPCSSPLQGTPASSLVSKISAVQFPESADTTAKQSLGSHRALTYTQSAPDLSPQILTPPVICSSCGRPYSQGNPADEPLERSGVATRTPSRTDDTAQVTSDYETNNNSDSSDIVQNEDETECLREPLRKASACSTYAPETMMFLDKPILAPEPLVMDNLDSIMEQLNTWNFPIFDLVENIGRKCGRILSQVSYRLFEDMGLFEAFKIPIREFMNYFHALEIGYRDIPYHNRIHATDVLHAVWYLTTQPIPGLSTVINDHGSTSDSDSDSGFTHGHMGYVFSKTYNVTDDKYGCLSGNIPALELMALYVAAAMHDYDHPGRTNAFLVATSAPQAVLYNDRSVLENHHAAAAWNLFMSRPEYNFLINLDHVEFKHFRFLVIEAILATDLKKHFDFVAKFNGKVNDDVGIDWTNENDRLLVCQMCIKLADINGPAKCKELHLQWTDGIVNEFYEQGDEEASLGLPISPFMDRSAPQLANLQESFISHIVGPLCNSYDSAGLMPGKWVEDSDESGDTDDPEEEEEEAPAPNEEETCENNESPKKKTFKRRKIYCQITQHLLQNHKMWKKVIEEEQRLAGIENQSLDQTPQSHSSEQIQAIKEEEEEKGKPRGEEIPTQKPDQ

TNF-alpha [5] = assay: Inhibition of LPS-induced TNF-alpha production in mice; type: in vivo, mouse; settings: 10 mg/kg oral; plasma 1 h after LPS; vehicle = 100%; p < 0.05
IL-6 = assay: Inhibition of LPS-induced IL-6 production in RAW264.7 cells (ELISA); type: cell-based, mouse
COX-2 = assay: Inhibition of LPS-induced COX-2 production in RAW264.7 cells (Western blot); type: cell-based, mouse; settings: LPS-stimulated cells; FIG. 8
[6] = test system: 3T3-L1 differentiated adipocytes; assay: Glucose uptake in 3T3-L1 adipocytes (14C-deoxyglucose); type: cell-based, mouse; settings: different concentrations, 48 hours; percentage of basal; FIG. 1
TNF-alpha [7] = assay: Inhibition of LPS-induced TNF-alpha production in RAW264.7 cells (ELISA); type: cell-based, mouse
3T3-L1 adipocytes = assay: Insulin-stimulated glucose uptake in 3T3-L1 adipocytes; type: cell-based, mouse; settings: 5 μM, 48 hours; compared to vehicle; FIG. 2
ob/ob mice [8] = assay: Glucose-lowering effect in ob/ob mice; type: in vivo, mouse; settings: 10 mg/kg daily oral, p<0.05
IL-1 beta = assay: Inhibition of LPS-induced IL-1 beta production in RAW264.7 cells (ELISA); type: cell-based, mouse
iNOS = assay: Inhibition of LPS-induced iNOS production in RAW264.7 cells (Western blot); type: cell-based, mouse; settings: 10, 30 or 100 μM; FIG. 8
COX-1 = COX-1 production in LPS-stimulated RAW264.7 cells (Western blot); type: cell-based, mouse; settings: FIG. 8
ob/ob mice [9] = assay: Lipid-lowering effects in ob/ob mice; type: in vivo, mouse; settings: 10 mg/kg daily oral, day 8, versus vehicle, p<0.05
[10] = test system: human elutriated monocytes; assay: Cell viability of human monocytes (MTS/PMS assay); type: cell-based; settings: 30 μM, 20 h

COc1cc(/C=C(/C(=O)N(C)C)c2ccc(Oc3ccc(CCC(=O)NC(N)=O)cc3)cc2)cc(OC)c1 [Compound 13, 3-(3,5-dimethoxyphenyl)-N,N-dimethyl-2-{4-[4-(3-oxo-3-ureido-propyl)-phenoxy]-phenyl}-acrylamide]
IC50 ([1]; PDE4): < 1 µM | Percent Inhibition of Enzyme Activity ([1]; PDE4, 1 μM): 85% | Percent Inhibition of Enzyme Activity ([1]; PDE4, 10 μM): 98% | Percent Inhibition of Enzyme Activity ([1]; PDE4, 30 μM): 102% | inhibition at 0.3 µM (TNF-alpha [2]): 15% | inhibition at 1 µM (TNF-alpha [2]; 1.0 μM): 40% | inhibition at 3 µM (TNF-alpha [2]): 70% | inhibition at 10 µM (TNF-alpha [2]): 78% | inhibition at 30 µM (TNF-alpha [2]): 78% | O.D. (Mean ± SD) ([3]; 10 μM + anti-CD3/anti-CD28 mAbs, 67 h, MTS/PMS, 505 nm): 0.578 ± 0.012 | inhibition at 10 µM ([3]; Mus musculus, Lymphocyte, 10 μM, stimulated by anti-CD3/anti-CD28 monoclonal antibodies): ~50% | inhibition of LPS-induced phosphorylation of p44/42 MAP kinase (p44/42 MAP kinase; 10 μM): not | inhibition of LPS/IFN-gamma induced phosphorylation of p44/42 (p44/42 MAP kinase; 30 μM and 10 μM, LPS (10 ng/ml)/IFN-gamma (10 U/ml)): inhibited LPS/IFN-gamma induced phosphorylation of p44/42 in a dose-dependent manner | inhibition of LPS-induced phosphorylation of p44/42 MAP kinase (p44/42 MAP kinase; 30 μM): inhibited | inhibition at 1 µM ([4]; PDE3, 1 μM): 20% | inhibition at 10 µM ([4]; PDE3, 10 μM): 52% | inhibition at 30 µM ([4]; PDE3, 30 μM): 55%

CN(C)C(=O)/C(=C/c1cccnc1)c1ccc(Oc2ccc(CC(C(N)=O)C(N)=O)cc2)cc1 [Compound 71, 2-{4-[4-(1-dimethylcarbamoyl-2-pyridin-3-ylvinyl)-phenoxy]-benzyl}-malonamide]
inhibition at 0.3 µM (TNF-alpha [2]): 20% | inhibition at 3 µM (TNF-alpha [2]): 47% | inhibition at 30 µM (TNF-alpha [2]): 65%

CN(Cc1cnc2nc(N)nc(N)c2n1)c1ccc(C(=O)N[C@@H](CCC(=O)O)C(=O)O)cc1 [Methotrexate, methotrexate, reference compound]
Percent TNF Production (Mean ± SEM) (TNF-alpha [5]): 61 ± 5%

COC(=O)C(=Cc1cc(OC)cc(OC)c1)c1ccc(Oc2ccc(CCC(=O)NC(N)=O)cc2)cc1 [Compound 1, 3-(3,5-dimethoxyphenyl)-2-{4-[4-(3-oxo-3-ureidopropyl)-phenoxy]-phenyl}-acrylic acid methyl ester]
inhibition of LPS-induced IL-6 production (IL-6; 10, 30 or 100 μM, FIG. 7): significantly inhibited | inhibitory effect on IL-6 compared with dexamethasone (IL-6; versus 1 μM dexamethasone): greater than that observed with dexamethasone | inhibition of COX-2 production (COX-2): selectively inhibited production of COX-2 | glucose uptake [6]: dose-dependent increase in glucose uptake | inhibition of LPS-induced TNF-alpha production (TNF-alpha [7]; 10, 30 or 100 μM, FIG. 5): significantly inhibited | inhibitory effect on TNF-alpha compared with dexamethasone (TNF-alpha [7]; versus 1 μM dexamethasone): approached that seen with dexamethasone | stimulation of glucose uptake by insulin (3T3-L1 adipocytes): enhanced the stimulation of glucose uptake by insulin | decrease in blood glucose levels (ob/ob mice [8]; day 6, versus vehicle): 36% | decrease in blood glucose levels (ob/ob mice [8]; day 8, versus vehicle): 23% | inhibition of LPS-induced IL-1 beta production (IL-1 beta; 10, 30 or 100 μM, FIG. 6): significantly inhibited | inhibition of IL-1 beta compared with dexamethasone (IL-1 beta; versus 1 μM dexamethasone): of the same approximate magnitude as that seen with dexamethasone | inhibition of LPS-induced iNOS production (iNOS): dose-dependent inhibition | inhibition of COX-1 production (COX-1): not COX-1 | free fatty acids lower (ob/ob mice [9]): 19% | serum triglycerides lower (ob/ob mice [9]): 49%

COc1cc(/C=C(/C(=O)N(C)C)c2ccc(NC(=O)c3ccccc3)cc2)cc(OC)c1 [Compound 67, N-{4-[2-(3,5-dimethoxyphenyl)-1-dimethylcarbamoylvinyl]-phenyl}-benzamide]
inhibition at 0.3 µM (TNF-alpha [2]): 40% | inhibition at 3 µM (TNF-alpha [2]): 62% | inhibition at 30 µM (TNF-alpha [2]): 89%

COc1cc(/C=C(/C(=O)N(C)C)c2ccc(NC(=O)c3cccc(O)c3)cc2)cc(OC)c1 [Compound 44, N-{4-[2-(3,5-dimethoxyphenyl)-1-dimethylcarbamoylvinyl]-phenyl}-3-hydroxybenzamide]
inhibition at 0.3 µM (TNF-alpha [2]): 32% | inhibition at 3 µM (TNF-alpha [2]): 67% | inhibition at 30 µM (TNF-alpha [2]): 91%

COc1cc(/C=C(/C(=O)N2CCCCC2)c2ccc(Oc3ccc(CCC(=O)NC(N)=O)cc3)cc2)cc(OC)c1 [Compound 51, [3-(4-{4-[2-(3,5-dimethoxyphenyl)-1-(piperidine-1-carbonyl)-vinyl]-phenoxy}-phenyl)-propionyl]-urea]
inhibition at 3 µM (TNF-alpha [2]): 25% | inhibition at 10 µM (TNF-alpha [2]): 57% | Cell viability [10]: * (Cell viability <70%)

CC(=O)NC(=O)CCc1ccc(Oc2ccc(/C(=C\c3ccc(F)cc3)C(=O)N(C)C)cc2)cc1 [Compound 56, 2-{4-[4-(3-acetylamino-3-oxopropyl)-phenoxy]-phenyl}-3-(4-fluorophenyl)-N,N-dimethylacrylamide]
inhibition at 0.3 µM (TNF-alpha [2]): 1% | inhibition at 3 µM (TNF-alpha [2]): 6% | inhibition at 30 µM (TNF-alpha [2]): 54%

— patent publication US20080188654A1, “Compounds for treatment of inflammation, diabetes and related disorders” (Theracos, Inc., priority 2001, published 2008)
